The source of these data is ChEMBL document CHEMBL1141989, “Amino acid conjugates as kappa opioid receptor agonists” (Bioorg Med Chem Lett, 2005).

Test [1] deals with T1, Kappa-type opioid receptor (Homo sapiens, UniProt P41145). Nature of the test: In vitro binding affinity for human kappa opioid receptor was determined by using [3H]diprenorphine as radioligand.
Test [2] has as its target Opioid receptors; mu & kappa (Homo sapiens) (UniProt P41145+P35372). Nature of the test: Selectivity of binding affinity of human kappa opioid receptor over human mu opioid receptor. In kind it is protein assay.
Test [3] addresses T1, Kappa-type opioid receptor. Nature of the test: In vitro effective concentration towards human kappa opioid receptor was determined using [35S]-GTP-gamma S as radioligand; Not determined. The class given is functional. For orientation: GTPγS resists hydrolysis and so accumulates on activated G proteins.

Where “and” joins values, the source holds several entries; their conditions need not be identical. Identical values can stand only once.

T1 sequence (P41145 whole entry): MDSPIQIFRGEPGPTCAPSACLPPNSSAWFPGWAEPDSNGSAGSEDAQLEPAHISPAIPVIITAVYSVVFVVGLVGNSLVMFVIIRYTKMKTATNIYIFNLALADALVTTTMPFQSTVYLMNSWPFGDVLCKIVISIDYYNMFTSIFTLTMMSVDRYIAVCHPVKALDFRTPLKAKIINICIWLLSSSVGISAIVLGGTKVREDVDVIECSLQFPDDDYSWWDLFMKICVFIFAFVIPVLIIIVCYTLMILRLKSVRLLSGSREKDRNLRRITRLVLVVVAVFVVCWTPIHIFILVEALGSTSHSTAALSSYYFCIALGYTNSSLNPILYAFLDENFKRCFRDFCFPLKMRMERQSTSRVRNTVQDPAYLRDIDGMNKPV
Chain of Opioid receptors; mu & kappa (Homo sapiens) (P35372 whole entry, looked up): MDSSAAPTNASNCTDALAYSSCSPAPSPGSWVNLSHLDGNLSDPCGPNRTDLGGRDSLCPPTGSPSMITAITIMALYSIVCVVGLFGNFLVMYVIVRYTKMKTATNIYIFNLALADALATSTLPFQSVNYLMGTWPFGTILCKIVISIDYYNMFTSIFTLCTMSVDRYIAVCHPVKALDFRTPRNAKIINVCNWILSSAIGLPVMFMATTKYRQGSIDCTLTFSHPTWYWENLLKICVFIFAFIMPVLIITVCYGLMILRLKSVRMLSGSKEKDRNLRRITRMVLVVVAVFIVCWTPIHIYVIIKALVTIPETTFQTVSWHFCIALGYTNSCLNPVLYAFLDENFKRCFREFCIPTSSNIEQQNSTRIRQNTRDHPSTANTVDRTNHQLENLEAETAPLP
Chain of Opioid receptors; mu & kappa (Homo sapiens) (P41145 whole entry, looked up): as the sequence (P41145 whole entry) above

With `CN(C(=O)CNC(=O)OCc1ccccc1)[C@H](CN1CCCC1)c1ccccc1`, the affinity in test [1] corresponds to a Ki of 84 nM. Consider `CN(C(=O)CNC(=O)c1ccc(Cl)c(Cl)c1)[C@H](CN1CCCC1)c1ccccc1`, for which the Selectivity in test [2] was 34 and 24. In addition, a half-maximal effect in test [3] (EC50) was put at 2.25 nM. Also, the Ki (as a rule, a measure of affinity in units of concentration, obtained from inhibition or displacement) in test [1] came out at 3.6 nM. In test [1], `CN(C(=O)[C@@H](NC(=O)c1ccccc1)c1ccccc1)[C@H](CN1CCCC1)c1ccccc1` showed a Ki of 99 nM.

Turning to `CN(C(=O)[C@@H](NC(=O)OCc1ccccc1)c1ccccc1)[C@H](CN1CCCC1)c1ccccc1`, the Selectivity in test [2] is 22 and 27. The Ki in test [1] was 138 nM.

Turning to `CN(C(=O)[C@H](Cc1ccccc1)NC(=O)OCc1ccccc1)[C@H](CN1CCCC1)c1ccccc1`, the Selectivity in test [2] was 13 and 5. Further, the Ki in test [1] is 150 nM. As for `COc1ccccc1C(=O)NCC(=O)N(C)[C@H](CN1CC[C@@H](O)C1)c1ccccc1`, the midpoint of the response in test [3], the EC50, lay at 1.98 nM. In test [1], the affinity, expressed as Ki, was 2 nM. In the same order, the values of `CN(C(=O)CNC(=O)c1ccc(Cl)c(Cl)c1)[C@H](CN1CC[C@@H](O)C1)c1ccccc1` are 0.76 nM and 0.83 nM. `COC(=O)N[C@H](C(=O)N(C)[C@H](CN1CCCC1)c1ccccc1)c1ccccc1` registered a Selectivity in test [2] of over 100. The molecule also had an inhibitory constant (Ki) in test [1] of 178 nM. Regarding `CN(CC(=O)N(C)[C@H](CN1CC[C@@H](O)C1)c1ccccc1)C(=O)c1ccc(Cl)c(Cl)c1`, the EC50 (in general, the midpoint of the concentration-response curve) in test [3] was 41.4 nM. This molecule also returned an inhibition constant (Ki) in test [1] of 20 nM. With `COc1ccc(C(=O)NCC(=O)N(C)[C@H](CN2CC[C@@H](O)C2)c2ccccc2)cc1`, the Selectivity in test [2] was 39 and > 100. For the same molecule, the inhibitory constant (Ki) in test [1] came out at 48 nM. Take `CN(C(=O)CNC(=O)c1ccccc1)[C@H](CN1CCCC1)c1ccccc1`: the Selectivity in test [2] is 61 and 50. This molecule displayed an EC50 in test [3] of 3.85 nM. The molecule further returned a Ki in test [1] of 6.7 nM. As for `CN(C(=O)CNC(=O)Cc1ccccc1)[C@H](CN1CCCC1)c1ccccc1`, in test [2], the Selectivity is > 100 and 49. The affinity in test [1] corresponds to a Ki of 16.3 nM.

Consider `CN(C(=O)[C@H](NC(=O)OCc1ccccc1)c1ccccc1)[C@H](CN1CCCC1)c1ccccc1`, for which the inhibition constant (Ki) in test [1] was found to be 856 nM.

For `CN(C(=O)C(NC=O)c1ccccc1)[C@H](CN1CCCC1)c1ccccc1` (mixture of isomers), in test [2], the Selectivity is 146 and > 100. Also, the affinity in test [1], expressed as Ki, was 258 nM.

Molecule `CN(C(=O)CNC(=O)c1ccc2c(c1)no[n+]2[O-])[C@H](CN1CCCC1)c1ccccc1` returned an EC50 in test [3] of 4.37 nM. In test [1], this molecule showed a Ki of 4.6 nM.
